Measured values taken from patent US20060063736A1, “Compositions and methods for inhibiting mucin-type O-linked glycosylation” (priority 2004, published 2006).

Columns and labels:
rppGalNAcT-10 = biological target: T1, rppGalNAcT-10 (Rattus norvegicus, UniProt Q925R7); experiment: Radiolabel capture assay, rppGalNAcT-10; format: biochemical; settings: MUC5AC glycopeptide
T1 construct: plasmids encoding truncated secreted ppGalNAcTs-1 to −5, -7, -10 and -11; made in house; host or cells: COS-7
T1 sequence (Q925R7 32-603 limits assumed): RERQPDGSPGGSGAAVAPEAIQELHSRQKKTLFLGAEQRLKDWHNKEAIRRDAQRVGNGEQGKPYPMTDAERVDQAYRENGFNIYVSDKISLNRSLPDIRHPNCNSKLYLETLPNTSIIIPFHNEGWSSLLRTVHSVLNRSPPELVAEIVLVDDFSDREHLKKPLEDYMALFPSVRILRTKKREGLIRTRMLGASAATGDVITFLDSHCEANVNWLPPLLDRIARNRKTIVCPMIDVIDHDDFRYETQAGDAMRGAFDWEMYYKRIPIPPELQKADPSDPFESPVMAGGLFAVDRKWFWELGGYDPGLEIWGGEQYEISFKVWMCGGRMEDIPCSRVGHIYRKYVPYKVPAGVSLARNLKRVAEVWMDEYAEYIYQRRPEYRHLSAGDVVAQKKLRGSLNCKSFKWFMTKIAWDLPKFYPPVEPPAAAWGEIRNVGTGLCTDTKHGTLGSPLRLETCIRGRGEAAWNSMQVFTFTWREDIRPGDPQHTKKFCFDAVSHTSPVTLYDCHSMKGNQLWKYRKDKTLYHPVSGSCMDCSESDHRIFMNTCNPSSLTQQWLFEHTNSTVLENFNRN
Experimental: Radiolabel capture assays using ^14C-labeled UDP-GalNAc were performed as previously described with various concentrations of 1-68A or 2-68A in 2% DMSO. Ten Hagen et al. (2001) J. Biol. Chem. 276:17395-17404.
Table 1. IC50 values for 1-68A and 2-68A with ppGalNAcTs-1 to −5, -7, -10, -11, β1-4GalT and α1-3GalT. The requirement of glycopeptides as substrates for ppGalNAcT-7 and -10 precluded the use of the ELLA, as both the substrate and product bind HPA-HRP. Thus, the radiolabel capture assay was employed to measure the IC50 values of 1-68A and 2-68A with ppGalNAcT-7 and -10 using MUC5AC (GTTPSPVPTTSTTSAP; SEQ ID NO:15) glycopeptide, previously shown to be substrate for both enzymes. Ten Hagen et al. (1999) J. Biol. Chem. 274:27867-27874; and Ten Hagen et al. (2001) J. Biol. Chem. 276:17395-17404. IC50 values of 1-68A and 2-68A with ppGalNAcT-5 were performed with α-FLAG purified enzyme and radiolabel capture assay, due to low activity and stability of the crude enzyme. m=murine, r=rattus.

[1] = biological target: T2, α1-3galactosyltransferase (α1-3GalT) (Sus scrofa, UniProt P50127); experiment: Continuous assay for α1-3GalT activity; format: biochemical, porcine; settings: for inhibitory activity against α1-3GalT: highest concentration tested (500 μM)
T2 construct: purchased Calbiochem
T2 sequence (P50127 whole entry): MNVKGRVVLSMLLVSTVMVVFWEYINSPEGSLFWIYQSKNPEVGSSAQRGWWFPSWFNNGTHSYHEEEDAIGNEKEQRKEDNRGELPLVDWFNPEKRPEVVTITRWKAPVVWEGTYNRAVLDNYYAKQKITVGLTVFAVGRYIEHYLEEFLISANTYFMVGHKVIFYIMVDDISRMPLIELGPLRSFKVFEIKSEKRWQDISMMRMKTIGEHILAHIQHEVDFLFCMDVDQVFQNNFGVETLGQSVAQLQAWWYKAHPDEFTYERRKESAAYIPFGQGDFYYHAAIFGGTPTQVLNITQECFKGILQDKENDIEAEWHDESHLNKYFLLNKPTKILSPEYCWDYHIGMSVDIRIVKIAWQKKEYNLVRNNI
Experimental: The enzymatic reactions contained the following components in a final volume of 100 μL: 20 mM MnCl2, 100 mM sodium cacodylate, pH 6.5, 5 U of pyruvate kinase, 5 U of lactate dehydrogenase, 2 mM PEP, 0.2 mM NADH with 0.4 mU of β1-4GalT, 1 mM βOMeGlcNAc, 25 μM UDP-Gal or 1.0 mU of α1-3GalT, 1 mM LacNAc, 100 μM UDP-Gal and various concentrations of 1-68A or 2-68A in 2.5% DMSO. The reaction mixtures were incubated at 37° C. for 10 min before the reaction was initiated by the addition of UDP-Gal. The change in absorbance was monitored over 20 min at 340 nm.
To determine the selectivity of the compounds among the broader family of UDP-sugar utilizing enzymes, 1-68A and 2-68A were tested against bovine β1-4galactosyltransferase (β1-4GalT) and porcine α1-3galactosyltransferase (α1-3GalT), using a previously reported continuous colorimetric assay. Fitzgerald et al. (1970) Anal. Biochem. 36:43-61. Neither compound was active against β1-4GalT or α1-3GalT at the highest concentration tested (500 μM) (Entries 9 and 10, Table 1).

Jurkat cells = experiment: Con A staining of N-linked glycans on Jurkat cells, flow cytometry; format: cell-based, human; settings: 2 d treatment
Experimental: Jurkat cells were seeded at 250,000 cells/well (determined by Coulter cell counter) in 12-well polystyrene tissue culture plates in 1.0 mL of media and treated with various concentrations of 1-68A or 2-68A from 50 mM dimethyl sulfoxide (DMSO) stock solutions or doxorubicin or campothecin from 1 mM DMSO stock solutions. After 2 d, cells were harvested, washed twice with PBS buffer (PBS, pH 7.4, 0.1% FCS, 0.1% NaN3 w/v) and stained with FITC-HPA (1 μg/mL) or FITC-Con A (5 μg/mL with 1 mM CaCl2) in PBS, pH 7.4 in the dark for 1 h at 4° C. Cells were washed twice with PBS buffer, resuspended in 300 μL of PBS buffer and analyzed by flow cytometry (FacsCaliber, BD Instruments). Annexin-V staining was performed according to the manufacturer's protocols (Invitrogen).
To directly monitor ppGalNAcT activities in cells, Jurkat cells (human T-cell lymphoma), which are known to produce only the Tn-antigen (FIG. 1) as their O-linked glycans, were chosen. Piller et al. (1990) J. Biol. Chem. 265:9264-9271. Changes in Tn-antigen expression on the surface of Jurkat cells were monitored by HPA binding followed by flow cytometry analysis. Con A staining of N-linked glycans was used as a control for non-specific inhibition of protein glycosylation. Baenziger and Fiete (1979) J. Biol. Chem. 254:2400-2407.

[2] = biological target: T3, UDP-GlcNAc/GalNAc C4-epimerase (Homo sapiens, UniProt Q14376); settings: Winans and Bertozzi (2002); cited from earlier work
T3 sequence (Q14376 1-348): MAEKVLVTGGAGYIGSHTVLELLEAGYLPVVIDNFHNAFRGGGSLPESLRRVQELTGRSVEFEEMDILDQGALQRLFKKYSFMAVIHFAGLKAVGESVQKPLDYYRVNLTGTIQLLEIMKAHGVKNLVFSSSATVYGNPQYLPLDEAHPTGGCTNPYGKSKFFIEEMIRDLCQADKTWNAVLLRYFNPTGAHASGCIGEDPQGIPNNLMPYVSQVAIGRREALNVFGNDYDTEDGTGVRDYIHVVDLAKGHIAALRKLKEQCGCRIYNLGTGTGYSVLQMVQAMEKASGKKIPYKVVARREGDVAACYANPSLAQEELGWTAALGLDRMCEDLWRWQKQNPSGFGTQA

[3] = tested on: UDP-galactopyranose mutase; settings: Scherman et al. (2003); cited from earlier work

| Structure (SMILES) | IC50 (rppGalNAcT-10) [µM] | IC50 [1] [µM] | inhibitory activity against α1-3GalT [1] | effect on Con A staining (Jurkat cells) | identified in library screen against UDP-GlcNAc/GalNAc C4-epimerase [2] | identified in library screen against UDP-galactopyranose mutase [3] |
| --- | --- | --- | --- | --- | --- | --- |
| O=c1ccn([C@@H]2O[C@H](CON=Cc3ccc(O)c(O)c3O)[C@@H](O)[C@H]2O)c(=O)[nH]1 [1-68A] | 7 ± 1 | > 500 | lack of inhibitory activity | no significant effect | not identified | not identified |
| O=C(CON=Cc1ccc(O)c(O)c1O)NC[C@H]1O[C@@H](n2ccc(=O)[nH]c2=O)[C@H](O)[C@@H]1O [2-68A] | 6 ± 1 | > 500 | lack of inhibitory activity | no significant effect | not identified | not identified |
